Source: patent US7109193B2, “Tricyclic diazepines tocolytic oxytocin receptor antagonists” (Wyeth, priority 2001, dated 2006)

Target: T1, human vasopressin V1a receptor subtype (Homo sapiens, UniProt P37288)
T1 construct: host or cells: CHO cells (pZeoSV vector for the Thibonnier line)
Experiment: Vasopressin binding in Chinese Hamster Ovary cell membranes expressing human vasopressin V1a subtype receptors
Conditions: 100 nM, CHO cell membranes, [3H]Manning ligand, values without parentheses
Method in brief: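 Membranes from CHO cells expressing human V1a receptor were incubated with [3H]Manning ligand (added as 20 μL of 8 nM) in pH 7.4 Tris buffer with MgCl2, BSA and protease inhibitors, 60 min at room temperature. Bound radioactivity was counted after filtration; values are percent inhibition at a stated concentration or IC50.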

T1 sequence (P37288 whole entry): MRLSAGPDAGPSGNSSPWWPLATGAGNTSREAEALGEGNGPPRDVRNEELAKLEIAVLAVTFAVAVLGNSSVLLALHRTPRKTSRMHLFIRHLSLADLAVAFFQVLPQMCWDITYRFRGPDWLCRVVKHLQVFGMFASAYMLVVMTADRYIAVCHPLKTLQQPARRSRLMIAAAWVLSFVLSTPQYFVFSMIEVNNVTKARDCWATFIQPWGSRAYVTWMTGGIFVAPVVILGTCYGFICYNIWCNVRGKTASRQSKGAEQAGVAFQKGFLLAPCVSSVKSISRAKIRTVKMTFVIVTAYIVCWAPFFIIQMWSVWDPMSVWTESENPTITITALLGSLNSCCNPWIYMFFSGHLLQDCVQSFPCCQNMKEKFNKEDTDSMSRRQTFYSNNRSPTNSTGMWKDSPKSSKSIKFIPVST

| Molecule | V1a % inhibition @ 100 nM |
| --- | --- |
| COc1cc(C(=O)N2Cc3ccc(C(=O)N4CC[C@@H](N(C)C)C4)n3Cc3ccccc32)ccc1-n1c(C)ccc1C [Example 322, [(3R)-3-(Dimethylamino)pyrrolidinyl]{10-[4-(2,5-dimethyl-1H-pyrrol-1-yl)-3-methoxybenzoyl]-10,11-dihydro-5H-pyrrolo[2,1-c][1,4]benzodiazepin-3-yl}methanone] | 12% |
| {10-[(2,2′-Dimethoxy[1,1′-biphenyl]-4-yl)carbonyl]-10,11-dihydro-5H-pyrrolo[2,1-c][1,4]benzodiazepin-3-yl}(4-isopropyl-1-piperazinyl)methanone [Example 244] | 44% |
